In ChEMBL document CHEMBL1201862, “PubChem BioAssay data set” (2004):
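Briefly, cells in 96-well plates were exposed to five compound concentrations for 48 h, and endpoints were estimated by linear interpolation. GI50: concentration for 50% inhibition of growth.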 The source made the active and inactive calls. Cut-off read from the data, not from the text of the source: active = GI50 up to about 1.1 µM and inactive = higher.

What was measured:
Assay in all cases: NCI tumour cell line growth inhibition, 48 h
786-0 = test system: 786-0
A498 = test system: A498
A549 = test system: A549
ACHN = test system: ACHN
BT-549 = test system: BT-549
CAKI-1 = test system: CAKI-1
COLO 205 = test system: COLO 205
DU-145 = test system: DU-145
EKVX = test system: EKVX
HCC 2998 = test system: HCC 2998
HCT-116 = test system: HCT-116
HCT-15 = test system: HCT-15
HOP-62 = test system: HOP-62
HOP-92 = test system: HOP-92
HT-29 = test system: HT-29
Hs-578T = test system: Hs-578T
IGROV-1 = test system: IGROV-1
LOX IMVI = test system: LOX IMVI
M14 = test system: M14
MCF7 = test system: MCF7
MDA-MB-231 = test system: MDA-MB-231
MDA-MB-435 = test system: MDA-MB-435
Malme-3M = test system: Malme-3M
NCI-H226 = test system: NCI-H226
NCI-H23 = test system: NCI-H23
NCI-H460 = test system: NCI-H460
NCI-H522 = test system: NCI-H522
NCI/ADR-RES = test system: NCI/ADR-RES
OVCAR-3 = test system: OVCAR-3
OVCAR-4 = test system: OVCAR-4
OVCAR-5 = test system: OVCAR-5
OVCAR-8 = test system: OVCAR-8
PC-3 = test system: PC-3
RPMI-8226 = test system: RPMI-8226
RXF 393 = test system: RXF 393
SF-268 = test system: SF-268
SF-295 = test system: SF-295
SF-539 = test system: SF-539
SK-MEL-28 = test system: SK-MEL-28
SK-MEL-2 = test system: SK-MEL-2
SK-MEL-5 = test system: SK-MEL-5
SK-OV-3 = test system: SK-OV-3
SN12C = test system: SN12C
SNB-19 = test system: SNB-19
SNB-75 = test system: SNB-75
SW-620 = test system: SW-620
T47D = test system: T47D
TK-10 = test system: TK-10
U-251 = test system: U-251
UACC-257 = test system: UACC-257
UACC-62 = test system: UACC-62
UO-31 = test system: UO-31
CCRF-CEM = test system: CCRF-CEM
HL-60 = test system: HL-60
K562 = test system: K562
KM12 = test system: KM12
MDA-N = test system: MDA-N
MOLT-4 = test system: MOLT-4
SR = test system: SR

`CC1=NC2=Nc3nc(C)cc[n+]3CN2C=C1` was tested, and the GI50 (786-0) was 48.3 µM (inactive), the GI50 (A498) was > 100 µM (inactive) and the GI50 (A549) was 79.3 µM (inactive). For the same molecule, the GI50 (ACHN) was > 100 µM (inactive), the GI50 (BT-549) was 49.3 µM (inactive) and the GI50 (CAKI-1) was 0.144 µM (active). For the same molecule, the GI50 (COLO 205) was 67.5 µM (inactive), the GI50 (DU-145) was > 100 µM (inactive) and the GI50 (EKVX) was 30.7 µM (inactive). The GI50 (HCC 2998) was 58.2 µM (inactive), the GI50 (HCT-116) was 38.9 µM (inactive) and the GI50 (HCT-15) was 88.5 µM. For the same molecule, the GI50 (HOP-62) was 89.3 µM (inactive), the GI50 (HOP-92) was 95.7 µM (inactive) and the GI50 (HT-29) was 31.8 µM (inactive). For the same molecule, the GI50 (Hs-578T) was > 100 µM (inactive), the GI50 (IGROV-1) was 39.9 µM (inactive) and the GI50 (LOX IMVI) was 29.8 µM (inactive). The GI50 (M14) was > 100 µM (inactive), the GI50 (MCF7) was > 100 µM (inactive) and the GI50 (MDA-MB-231) was 54.7 µM (inactive). The GI50 (MDA-MB-435) was 40 µM (inactive), the GI50 (Malme-3M) was 49.5 µM (inactive) and the GI50 (NCI-H226) was > 100 µM (inactive). For the same molecule, the GI50 (NCI-H23) was > 100 µM (inactive), the GI50 (NCI-H460) was 43.2 µM (inactive) and the GI50 (NCI-H522) was > 100 µM (inactive). The GI50 (NCI/ADR-RES) was > 100 µM (inactive), the GI50 (OVCAR-3) was > 100 µM (inactive) and the GI50 (OVCAR-4) was > 100 µM (inactive). For the same molecule, the GI50 (OVCAR-5) was > 100 µM (inactive), the GI50 (OVCAR-8) was > 100 µM (inactive) and the GI50 (PC-3) was > 100 µM (inactive). For the same molecule, the GI50 (RPMI-8226) was 19.1 µM (inactive), the GI50 (RXF 393) was > 100 µM (inactive) and the GI50 (SF-268) was > 100 µM (inactive). The GI50 (SF-295) was 85.5 µM (inactive), the GI50 (SF-539) was > 100 µM (inactive) and the GI50 (SK-MEL-28) was 53.1 µM (inactive). The GI50 (SK-MEL-2) was > 100 µM (inactive), the GI50 (SK-MEL-5) was 53.3 µM (inactive) and the GI50 (SK-OV-3) was > 100 µM (inactive). The GI50 (SN12C) was 92.5 µM (inactive), the GI50 (SNB-19) was > 100 µM (inactive) and the GI50 (SNB-75) was > 100 µM (inactive). For the same molecule, the GI50 (SW-620) was > 100 µM (inactive), the GI50 (T47D) was 70 µM (inactive) and the GI50 (TK-10) was 88.3 µM (inactive). For the same molecule, the GI50 (U-251) was > 100 µM (inactive), the GI50 (UACC-257) was > 100 µM (inactive) and the GI50 (UACC-62) was 44.2 µM (inactive). For the same molecule, the GI50 (UO-31) was > 100 µM (inactive).
`COCCOCCOCCC(=O)NC1CC2CCC1(C)C2(C)C` (stereo not drawn) was tested, and the GI50 (786-0) was > 100 µM (inactive), the GI50 (A498) was > 100 µM (inactive) and the GI50 (A549) was > 100 µM (inactive). The GI50 (ACHN) was > 100 µM (inactive), the GI50 (BT-549) was > 100 µM (inactive) and the GI50 (CAKI-1) was > 100 µM (inactive). The GI50 (CCRF-CEM) was > 100 µM (inactive), the GI50 (COLO 205) was > 100 µM (inactive) and the GI50 (DU-145) was > 100 µM (inactive). The GI50 (EKVX) was > 100 µM (inactive), the GI50 (HCC 2998) was > 100 µM (inactive) and the GI50 (HCT-116) was > 100 µM (inactive). The GI50 (HCT-15) was over 100 µM, the GI50 (HL-60) was > 100 µM (inactive) and the GI50 (HOP-62) was > 100 µM (inactive). For the same molecule, the GI50 (HT-29) was > 100 µM (inactive), the GI50 (Hs-578T) was > 100 µM (inactive) and the GI50 (IGROV-1) was > 100 µM (inactive). For the same molecule, the GI50 (K562) was > 100 µM (inactive), the GI50 (KM12) was > 100 µM (inactive) and the GI50 (LOX IMVI) was > 100 µM (inactive). The GI50 (M14) was > 100 µM (inactive), the GI50 (MCF7) was > 100 µM (inactive) and the GI50 (MDA-MB-231) was > 100 µM (inactive). The GI50 (MDA-MB-435) was > 100 µM (inactive), the GI50 (MDA-N) was > 100 µM (inactive) and the GI50 (MOLT-4) was > 100 µM (inactive). For the same molecule, the GI50 (Malme-3M) was > 100 µM (inactive), the GI50 (NCI-H226) was > 100 µM (inactive) and the GI50 (NCI-H23) was > 100 µM (inactive). The GI50 (NCI-H460) was > 100 µM (inactive), the GI50 (NCI/ADR-RES) was > 100 µM (inactive) and the GI50 (OVCAR-3) was > 100 µM (inactive). The GI50 (OVCAR-4) was > 100 µM (inactive), the GI50 (OVCAR-5) was > 100 µM (inactive) and the GI50 (OVCAR-8) was > 100 µM (inactive). For the same molecule, the GI50 (PC-3) was > 100 µM (inactive), the GI50 (RPMI-8226) was > 100 µM (inactive) and the GI50 (RXF 393) was > 100 µM (inactive). The GI50 (SF-268) was > 100 µM (inactive), the GI50 (SF-295) was > 100 µM (inactive) and the GI50 (SF-539) was > 100 µM (inactive). The GI50 (SK-MEL-28) was > 100 µM (inactive), the GI50 (SK-MEL-5) was > 100 µM (inactive) and the GI50 (SK-OV-3) was > 100 µM (inactive). For the same molecule, the GI50 (SN12C) was > 100 µM (inactive), the GI50 (SNB-19) was > 100 µM (inactive) and the GI50 (SNB-75) was > 100 µM (inactive). The GI50 (SR) was > 100 µM (inactive), the GI50 (SW-620) was > 100 µM (inactive) and the GI50 (TK-10) was > 100 µM (inactive). For the same molecule, the GI50 (U-251) was > 100 µM (inactive), the GI50 (UACC-257) was > 100 µM (inactive) and the GI50 (UACC-62) was > 100 µM (inactive). The GI50 (UO-31) was > 100 µM (inactive).
For `CCOC(=O)/C(=N/Nc1ccc(C)cc1)N1C(=S)N(C)N=C(C)C=C1S`, the GI50 (A549) was > 100 µM (inactive), the GI50 (ACHN) was > 100 µM (inactive) and the GI50 (BT-549) was 23.1 µM (inactive). The GI50 (CAKI-1) was 77.1 µM (inactive), the GI50 (CCRF-CEM) was > 100 µM (inactive) and the GI50 (COLO 205) was > 100 µM (inactive). For the same molecule, the GI50 (DU-145) was > 100 µM (inactive), the GI50 (EKVX) was > 100 µM (inactive) and the GI50 (HCC 2998) was > 100 µM (inactive). The GI50 (HCT-116) was > 100 µM (inactive), the GI50 (HCT-15) was over 100 µM and the GI50 (HL-60) was > 100 µM (inactive). For the same molecule, the GI50 (HOP-92) was 49.5 µM (inactive), the GI50 (HT-29) was > 100 µM (inactive) and the GI50 (Hs-578T) was 25.7 µM (inactive). The GI50 (IGROV-1) was > 100 µM (inactive), the GI50 (K562) was > 100 µM (inactive) and the GI50 (KM12) was > 100 µM (inactive). For the same molecule, the GI50 (M14) was > 100 µM (inactive), the GI50 (MCF7) was > 100 µM (inactive) and the GI50 (MDA-MB-231) was 32.7 µM (inactive). The GI50 (MDA-MB-435) was > 100 µM (inactive), the GI50 (MOLT-4) was > 100 µM (inactive) and the GI50 (NCI-H23) was 94.4 µM (inactive). For the same molecule, the GI50 (NCI-H460) was > 100 µM (inactive), the GI50 (NCI-H522) was > 100 µM (inactive) and the GI50 (NCI/ADR-RES) was > 100 µM (inactive). The GI50 (OVCAR-3) was > 100 µM (inactive), the GI50 (OVCAR-4) was > 100 µM (inactive) and the GI50 (OVCAR-5) was > 100 µM (inactive). The GI50 (OVCAR-8) was 75 µM (inactive), the GI50 (RPMI-8226) was > 100 µM (inactive) and the GI50 (RXF 393) was 41.7 µM (inactive). The GI50 (SF-268) was 33.8 µM (inactive), the GI50 (SF-295) was 19.1 µM (inactive) and the GI50 (SF-539) was > 100 µM (inactive). The GI50 (SK-MEL-28) was > 100 µM (inactive), the GI50 (SK-MEL-2) was 58.1 µM (inactive) and the GI50 (SK-MEL-5) was > 100 µM (inactive). For the same molecule, the GI50 (SK-OV-3) was 55.6 µM (inactive), the GI50 (SN12C) was > 100 µM (inactive) and the GI50 (SNB-19) was 69.8 µM (inactive). For the same molecule, the GI50 (SNB-75) was 29.3 µM (inactive), the GI50 (SR) was > 100 µM (inactive) and the GI50 (SW-620) was > 100 µM (inactive). The GI50 (T47D) was > 100 µM (inactive), the GI50 (TK-10) was 45.7 µM (inactive) and the GI50 (U-251) was 24.1 µM (inactive). For the same molecule, the GI50 (UACC-257) was > 100 µM (inactive), the GI50 (UACC-62) was > 100 µM (inactive) and the GI50 (UO-31) was > 100 µM (inactive).
